# Experimental data reported in publication PMC6582358, “Reversible ADP-ribosylation of RNA” (Nucleic Acids Research, 2019).
# Assays:
# Type in all cases: biochemical
# PARP3 FL = target: T1, PARP3 FL (Homo sapiens, UniProt Q9Y6F1); test: […]-NAD+ ADP-ribosylation of DNA, urea-PAGE autoradiography; details: acceptor DNA ends; pH 7.6, 37 °C; labelled compound
# T1 construct: full length, His tag (pDEST17)
# T1 sequence (Q9Y6F1 1-533): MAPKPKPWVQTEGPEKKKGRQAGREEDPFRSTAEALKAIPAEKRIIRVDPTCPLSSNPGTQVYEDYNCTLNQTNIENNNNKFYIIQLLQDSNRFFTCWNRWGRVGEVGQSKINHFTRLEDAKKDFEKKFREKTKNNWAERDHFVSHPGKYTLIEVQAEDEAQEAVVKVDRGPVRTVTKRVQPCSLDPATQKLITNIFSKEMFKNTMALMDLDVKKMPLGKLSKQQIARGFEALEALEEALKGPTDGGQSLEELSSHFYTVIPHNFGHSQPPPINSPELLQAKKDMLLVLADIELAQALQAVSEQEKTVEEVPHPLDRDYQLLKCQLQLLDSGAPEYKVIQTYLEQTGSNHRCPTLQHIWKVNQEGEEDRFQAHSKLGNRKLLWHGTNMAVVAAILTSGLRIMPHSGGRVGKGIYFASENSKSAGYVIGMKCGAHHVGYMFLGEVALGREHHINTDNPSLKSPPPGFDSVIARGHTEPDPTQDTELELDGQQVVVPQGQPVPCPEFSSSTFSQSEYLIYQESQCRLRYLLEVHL
# PARP10 FL = target: T2, PARP10 FL (Homo sapiens, UniProt Q53GL7); test: […]-NAD+ ADP-ribosylation of RNA, urea-PAGE autoradiography; details: acceptor 5'-phosphorylated ssRNA; 50 uM NAD+, 5 mM MgCl2, pH 7.6, 37 °C; labelled compound
# T2 construct: full length, His6-SUMO-TEV vector, E. coli Rosetta DE3, Ni, heparin and gel filtration
# T2 sequence (Q53GL7 1-1025): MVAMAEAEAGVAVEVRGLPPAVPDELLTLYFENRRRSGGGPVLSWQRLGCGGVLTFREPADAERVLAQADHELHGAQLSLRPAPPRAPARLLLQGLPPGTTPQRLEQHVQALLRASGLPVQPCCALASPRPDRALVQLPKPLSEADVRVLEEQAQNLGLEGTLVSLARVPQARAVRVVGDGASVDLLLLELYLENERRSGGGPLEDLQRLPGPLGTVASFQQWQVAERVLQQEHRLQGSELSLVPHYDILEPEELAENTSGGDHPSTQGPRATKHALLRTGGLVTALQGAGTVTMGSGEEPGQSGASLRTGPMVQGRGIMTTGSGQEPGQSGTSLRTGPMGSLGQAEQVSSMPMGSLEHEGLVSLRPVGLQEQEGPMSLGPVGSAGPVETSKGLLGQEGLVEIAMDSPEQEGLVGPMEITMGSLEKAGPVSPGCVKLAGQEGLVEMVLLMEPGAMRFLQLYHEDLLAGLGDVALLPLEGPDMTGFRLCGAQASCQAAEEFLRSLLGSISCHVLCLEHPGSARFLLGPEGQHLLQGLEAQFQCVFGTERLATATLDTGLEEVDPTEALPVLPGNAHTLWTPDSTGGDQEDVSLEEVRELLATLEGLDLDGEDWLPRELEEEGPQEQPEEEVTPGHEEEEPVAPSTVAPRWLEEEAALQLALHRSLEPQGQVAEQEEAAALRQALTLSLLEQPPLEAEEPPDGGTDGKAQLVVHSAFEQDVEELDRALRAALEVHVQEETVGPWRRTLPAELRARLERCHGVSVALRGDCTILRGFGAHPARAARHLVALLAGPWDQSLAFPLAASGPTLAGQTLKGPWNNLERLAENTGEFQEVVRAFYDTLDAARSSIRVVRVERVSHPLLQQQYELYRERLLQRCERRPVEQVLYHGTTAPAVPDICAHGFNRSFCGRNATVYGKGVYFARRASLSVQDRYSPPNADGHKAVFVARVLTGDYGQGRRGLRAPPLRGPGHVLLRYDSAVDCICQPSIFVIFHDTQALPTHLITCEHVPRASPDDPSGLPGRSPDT
# PARP10 cat = target: T3, PARP10 cat (Homo sapiens, UniProt Q53GL7); test: as above; details: acceptor 5'-phosphorylated ssRNA; 50 uM NAD+, 5 mM MgCl2, pH 7.6, 37 °C; labelled compound
# T3 construct: catalytic domain (818-1025), GST tag (pGEX-4T1), E. coli Rosetta DE3, gel filtration
# T3 sequence (Q53GL7 818-1025): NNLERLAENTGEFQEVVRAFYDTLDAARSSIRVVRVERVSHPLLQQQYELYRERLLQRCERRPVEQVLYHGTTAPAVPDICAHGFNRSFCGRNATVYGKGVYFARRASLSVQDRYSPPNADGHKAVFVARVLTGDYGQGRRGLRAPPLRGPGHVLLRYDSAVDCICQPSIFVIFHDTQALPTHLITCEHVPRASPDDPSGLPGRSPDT
# TRPT1 = target: T4, TRPT1 (Homo sapiens, UniProt Q86TN4); test: as above; details: acceptor 5'-phosphorylated ssRNA; 50 uM NAD+, 5 mM MgCl2, pH 7.6, 37 °C; labelled compound
# T4 construct: codon-optimised synthetic gene, His tag, pET28a, E. coli Rosetta DE3, Ni and gel filtration
# T4 sequence (Q86TN4 1-253): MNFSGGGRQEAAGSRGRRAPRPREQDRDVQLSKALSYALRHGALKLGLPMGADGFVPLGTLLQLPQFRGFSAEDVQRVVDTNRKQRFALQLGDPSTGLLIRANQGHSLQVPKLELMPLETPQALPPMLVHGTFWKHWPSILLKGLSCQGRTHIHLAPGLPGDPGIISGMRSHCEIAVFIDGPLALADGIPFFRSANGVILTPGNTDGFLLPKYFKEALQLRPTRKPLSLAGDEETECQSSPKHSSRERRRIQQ
structure (smiles),measurement,setting,value
NC(=O)c1ccc[n+]([C@@H]2O[C@H](COP(=O)(O)OP(=O)(O)OC[C@H]3O[C@@H](n4cnc5c(N)ncnc54)[C@H](O)[C@@H]3O)[C@@H](O)[C@H]2O)c1 [NAD+],"32P-NAD+ ADP-ribosylation of DNA, urea-PAGE autoradiography",PARP3 FL,PARP3 could only ADP-ribosylate DNA ends
same,"32P-NAD+ ADP-ribosylation of RNA, urea-PAGE autoradiography",PARP10 FL,PARP10 full length can also ADP-ribosylate phosphorylated RNA ends
same,"32P-NAD+ ADP-ribosylation of RNA, urea-PAGE autoradiography",PARP10 cat,RNA ADP-ribosylation activity of PARP10 is time and NAD^+ concentration dependent
same,"32P-NAD+ ADP-ribosylation of RNA, urea-PAGE autoradiography",TRPT1,TRPT1 based RNA modification is time and NAD^+ concentration dependent
